Tested on: anesthetized dogs
Experiment: frequency-dependent effects on cardiac (ventricular) refractory period in anesthetized dogs
Assay type: in vivo, dog
Details: 1.0 mg/kg i.v.
Method: Purpose-bred male or female mongrel dogs (9.8-10.8 kg) were anesthetized with alpha chloralose (80-100 mg/kg i.v.), and the animals were ventilated using a volume-cycled respirator. The right femoral artery and vein were isolated and cannulated for the measurement of systemic arterial pressure and for test agent administration, respectively. A right thoracotomy was performed in the 4th intercostal space, the pericardium incised, and the heart suspended in a pericardial cradle. One stainless steel bipolar plunge electrode was sutured to the ,anterior surface of the right ventricle for the determination of ventricular excitation threshold and refractory periods, while a second stainless steel bipolar plunge electrode was sutured to the right ventricular apex for ventricular pacing. A 21 gauge stainless steel hypodermic needle attached to a 1 ml syringe containing 40% formaldehyde was introduced into the right atrium via a stab wound and purse-string suture. The atrioventricular (AV) node was identified and then chemically ablated with formaldehyde using the method of Steiner and Kovalik (Steiner C. and Kovalik A. T. W., "A simple technique for production of chronic complete heart block in dogs", J. Appl. Physiol. 25: 631-632:, 1968). After the ablation of the AV node, heart rate was controlled and maintained at either 60 or 150 beats/min, as dictated by the experimental protocol, by ventricular apical pacing. Limb electrodes were attached for the continuous recording of Lead II electrocardiogram.
Ventricular excitation threshold (ET) and relative refractory periods (RRPs) were determined alternately at heart rates of 60 and 150 beats/min using an extrastimulus technique described previously (Wallace A. A. et. al., "Cardiac electrophysiologic and inotropic actions of new and potent methanesulfonanilide Class III antiarrhythmic agents in the anesthetized dog". J. Cardiovasc. Pharmacol. 18: 687-695, 1991). Ventricular excitation threshold was defined as the minimum current required to evoke a propagated response for a ventricular extrastimulus introduced at a coupling interval of 250-300 msec after a basic ventricular apical beat. The ventricular relative refractory period was defined as the longest coupling interval failing to elicit a propagated response for a ventricular extrastimulus introduced with a current intensity of 2× the ventricular excitation threshold. Multiple alternating baseline 60 and 150 beat/min RRPs were measured in each preparation, with two-to-three stable consecutive baseline RRP determinations required prior to administration of the test agent.
The compound of Example 26 was administered intravenously at a dosage of 1.0 mg/kg over a period of 5 minutes to a group of 5 anesthetized dogs. The compound of Example 26 was infused in a vehicle of 2% cremophor/2% ethanol/96% saline, at a test agent concentration of 0.5 mg/ml. Ventricular RRPs at 60 and 150 beats/min were redetermined immediately, 15 and 30 minutes following the intravenous administration of the compound of Example 26. The frequency-dependence of the activity of the compound of Example 26 was assessed by comparing absolute increases in ventricular RRPs from the final corresponding baseline value determined at slower (60 beat/min) vs faster (150 beat/min) heart rates.

Structure (SMILES): CN1C(=O)[C@H](NC(=O)/C=C/c2ccc(Cl)cc2Cl)N=C(c2ccccc2)c2ccccc21 [Example 26, E-(+)-N-[(3R)-2,3-Dihydro-1-methyl-2-oxo-5-phenyl-1H-1,4-benzo-diazepin-3-yl]-3-(2,4-dichlorophenyl)-2-propenamide]
- Increase in Ventricular Relative Refractory Period above baseline (60 beat/min, 15 Min): 19.2 ± 3.4 ms
- Increase in Ventricular Relative Refractory Period above baseline (60 beat/min, 30 Min): 14.0 ± 2.3 ms
- Increase in Ventricular Relative Refractory Period above baseline (60 beat/min, Immediate): 29.6 ± 4.4 ms
- Increase in Ventricular Relative Refractory Period above baseline (150 beat/min, 15 Min): 15.6 ± 4.1 ms
- Increase in Ventricular Relative Refractory Period above baseline (150 beat/min, 30 Min): 11.4 ± 4.4 ms
- Increase in Ventricular Relative Refractory Period above baseline (150 beat/min, Immediate): 23.2 ± 7.3 ms
- frequency dependence of increase in ventricular RRP (60 and 150 beat/min): Equivalent increases in the ventricular RRPs
